Data as given in patent US11596622B2, “Mazindol treatment for heroin dependence and substance use disorder” (NLS Pharmaceutics AG, priority 2017, dated 2023).

Tests used:
C57BL/6J mice = experiment: Effect of treatment on the conditioned place preference induced by heroin; format: in vivo; details: for Distance travelled in the drug-paired compartment / Distance travelled in the two compartments (Drug + Vehicle) / Distance travelled in the vehicle-paired compartment / Distance travelled, drug-paired minus vehicle-paired compartment / Time spent in the drug-paired compartment / Time spent in the vehicle-paired compartment / Time spent, drug-paired minus vehicle-paired compartment: mean
Text: Conditioned place preference (CPP) is a widely used procedure for studying the potential addictive effect of drugs. CPP is based upon the tendency of rodents to approach a stimulus that has previously been paired with an incentive state induced by a drug. A drug that induces a CPP may be suspected to present reinforcing effects that could lead to addiction. Numerous addictive drugs, such as opiate agonists or stimulants induce a CPP and a behavioral sensitization.
The effect of mazindol on place preference was examined in C57BL/6J mice using a method similar to the one used by Schlussman et al. (9).
The third experiments consisted in examining the effects of mazindol and D-amphetamine (at doses chosen from results of the first part of the study) on the place preference induced by heroin at a dose chosen from results of the second experiment, which was 1.25 mg/kg. Mazindol (0.125, 0.25 and 0.5 mg/kg) and D-amphetamine (0.5 mg/kg) were tested.
Therefore, it was decided to perform an additional experiment to examine the effects on place preference induced by heroin of mazindol at 1 and 2 mg/kg and of D-amphetamine at 1 mg/kg.
(§1) Following the habituation session (on day 1), animals (N=72) were pseudo-randomly assigned to two groups, a Control group (N=12) and a Heroin group (N=60), in a way that there was no significant difference between the two groups for the total distance travelled in the apparatus and for the percentage of time spent and the percentage distance travelled in the grey compartment and in the striped compartment.
Animals received the following treatments immediately before drug sessions: • Control group: vehicle • Heroin group: heroin (1.25 mg/kg)
(§2) Following the last conditioning session, the Heroin group was pseudo-randomly divided into 5 groups (N=12/group) in a way that there was no significant difference between groups for the total distance travelled in the apparatus and for the percentage of time spent and the percentage distance travelled in the grey compartment and in the striped compartment in habituation session, for the distance travelled in the drug-paired and in the vehicle-paired compartments in conditioning sessions and for the proportion of striped drug-paired compartments.
Animals received the following treatments before preference session: • Control group: vehicle of mazindol, i.p. 60 min before testing. • Hero group: vehicle of mazindol, i.p. 60 min before testing. • Hero-A 0.5 group: D-amphetamine (0.5 mg/kg), i.p. 30 min before testing. • Hero-Mz 0.125 group: mazindol (0.125 mg/kg), i.p. 60 min before testing. • Hero-Mz 0.25 group: mazindol (0.25 mg/kg), i.p. 60 min before testing. • Hero-Mz 0.5 group: mazindol (0.5 mg/kg), i.p. 60 min before testing.
as §1, with “three” for “two”, “(N=12),” for “(N=12) and”, “(N=48) and a Mazindol group (N=12),” for “(N=60),”
Animals received the following treatments before drug sessions: • Control group: vehicle, i.p. immediately before session. • Heroin group: heroin (1.25 mg/kg), i.p. immediately before session. • MAZ 2 group: mazindol (2 mg/kg), i.p. 60 min before session.
as §2, with “into 4” for “into 5”, “there is” for “there was”, “compartments. […]” for “compartments.”

5-HT transporter(h) = target: T1, 5-HT transporter(h) (Homo sapiens, UniProt P31645); experiment: Radioligand binding, 5-HT transporter (Eurofins CEREP); details: 1.0 × 10^−05 M; antagonist radioligand; read-out: percent inhibition of the binding of a radioactively labeled ligand
T1 construct: Eurofins CEREP
T1 sequence (P31645 whole entry): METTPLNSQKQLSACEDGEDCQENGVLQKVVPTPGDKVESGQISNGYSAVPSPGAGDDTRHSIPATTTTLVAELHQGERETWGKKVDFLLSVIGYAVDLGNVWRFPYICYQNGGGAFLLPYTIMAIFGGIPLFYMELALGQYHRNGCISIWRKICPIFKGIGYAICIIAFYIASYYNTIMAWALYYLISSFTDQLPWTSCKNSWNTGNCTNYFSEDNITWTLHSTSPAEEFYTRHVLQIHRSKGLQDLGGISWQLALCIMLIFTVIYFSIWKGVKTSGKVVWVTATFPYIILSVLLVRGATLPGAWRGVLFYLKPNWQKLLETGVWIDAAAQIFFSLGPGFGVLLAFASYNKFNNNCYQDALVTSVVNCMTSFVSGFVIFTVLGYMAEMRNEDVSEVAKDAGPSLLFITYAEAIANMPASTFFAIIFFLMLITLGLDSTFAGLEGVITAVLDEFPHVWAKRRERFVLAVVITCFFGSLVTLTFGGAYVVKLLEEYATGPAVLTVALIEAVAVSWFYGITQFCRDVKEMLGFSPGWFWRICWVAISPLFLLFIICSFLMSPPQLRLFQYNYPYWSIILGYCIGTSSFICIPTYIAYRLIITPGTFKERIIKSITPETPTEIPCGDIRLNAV
Text: (§3) Table A discloses mazindol and Met tested at […] and the compound binding calculated as a percent inhibition of the binding of a radioactively labeled ligand specific for each target (Eurofins CEREP, France).
(§4) An inhibition or stimulation of more than 50% is considered a significant effect of the test compounds. Fifty percent is a common cut-off for further investigation (i.e. determination of IC50 or EC50 values from concentration-response curves).
(§5) The results are expressed as a percent of control specific binding obtained in the presence of the test compounds:
(§6) [formula] and as a percent inhibition of control specific binding obtained in the presence of the test compounds: […]

k (KOP) = target: T2, k (KOP) (Rattus norvegicus, UniProt P34975); experiment: Radioligand binding, κ opioid receptor (Eurofins CEREP)
T2 construct: Eurofins CEREP
T2 sequence (P34975 whole entry): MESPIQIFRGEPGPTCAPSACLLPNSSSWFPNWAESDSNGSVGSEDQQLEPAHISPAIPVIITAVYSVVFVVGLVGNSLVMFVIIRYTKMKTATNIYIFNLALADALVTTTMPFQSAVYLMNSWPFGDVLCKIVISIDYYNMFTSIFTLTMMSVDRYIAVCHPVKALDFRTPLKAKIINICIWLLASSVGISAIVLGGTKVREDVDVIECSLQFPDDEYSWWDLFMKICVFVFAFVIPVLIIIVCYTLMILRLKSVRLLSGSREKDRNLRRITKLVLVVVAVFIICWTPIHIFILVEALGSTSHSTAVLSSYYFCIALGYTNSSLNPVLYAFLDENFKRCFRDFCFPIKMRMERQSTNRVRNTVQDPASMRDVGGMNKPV
Text: as §3
as §4, with “curves). Tables B and C display the binding profiles for Mazindol and Met.” for “curves).”
as §5, §6

[1] = test system: cocaine abuse and dependence; details: studies (7, 8); vs. placebo; cited from earlier work
[2] = animal toxicology studies; cited from earlier work
[3] = Hero-Mz 0.125: heroin 1.25 mg/kg conditioning, mazindol 0.125 mg/kg i.p. 60 min before preference session
[4] = Hero-Mz 0.25: heroin 1.25 mg/kg conditioning, mazindol 0.25 mg/kg i.p. 60 min before preference session
[5] = Hero-Mz 0.5: heroin 1.25 mg/kg conditioning, mazindol 0.5 mg/kg i.p. 60 min before preference session
[6] = Hero-Mz 1: heroin 1.25 mg/kg conditioning, mazindol 1 mg/kg i.p. 60 min before preference session
[7] = Hero-Mz 2: heroin 1.25 mg/kg conditioning, mazindol 2 mg/kg i.p. 60 min before preference session

Compound: OC1(c2ccc(Cl)cc2)c2ccccc2C2=NCCN21 (centres unmarked) [Mazindol, 5-(4-chlorophenyl)-2,5-dihydro-3 H-imadazo[2,1-a]isoindol-5-ol]
- Distance travelled in the drug-paired compartment (C57BL/6J mice; [3]): 5623.8 cm
- Distance travelled in the two compartments (Drug + Vehicle) (C57BL/6J mice; [3]): 9800.4 cm
- Distance travelled in the vehicle-paired compartment (C57BL/6J mice; [3]): 4176.5 cm
- Distance travelled, drug-paired minus vehicle-paired compartment (C57BL/6J mice; [3]): 1447.3 cm
- Time spent in the drug-paired compartment (C57BL/6J mice; [3]): 1105.7 s
- Time spent in the vehicle-paired compartment (C57BL/6J mice; [3]): 694.3 s
- Time spent, drug-paired minus vehicle-paired compartment (C57BL/6J mice; [3]): 411.3 s
- Distance travelled in the drug-paired compartment (C57BL/6J mice; [4]): 5092.1 cm
- Distance travelled in the two compartments (Drug + Vehicle) (C57BL/6J mice; [4]): 9390.5 cm
- Distance travelled in the vehicle-paired compartment (C57BL/6J mice; [4]): 4298.4 cm
- Distance travelled, drug-paired minus vehicle-paired compartment (C57BL/6J mice; [4]): 793.8 cm
- Time spent in the drug-paired compartment (C57BL/6J mice; [4]): 933.9 s
- Time spent in the vehicle-paired compartment (C57BL/6J mice; [4]): 866.1 s
- Time spent, drug-paired minus vehicle-paired compartment (C57BL/6J mice; [4]): 67.8 s
- Distance travelled in the drug-paired compartment (C57BL/6J mice; [5]): 4411.7 cm
- Distance travelled in the two compartments (Drug + Vehicle) (C57BL/6J mice; [5]): 8164.5 cm
- Distance travelled in the vehicle-paired compartment (C57BL/6J mice; [5]): 3752.8 cm
- Distance travelled, drug-paired minus vehicle-paired compartment (C57BL/6J mice; [5]): 659.0 cm
- Time spent in the drug-paired compartment (C57BL/6J mice; [5]): 965.1 s
- Time spent in the vehicle-paired compartment (C57BL/6J mice; [5]): 834.9 s
- Time spent, drug-paired minus vehicle-paired compartment (C57BL/6J mice; [5]): 130.1 s
- Distance travelled in the drug-paired compartment (C57BL/6J mice; [6]): 5464.5 cm
- Distance travelled in the two compartments (Drug + Vehicle) (C57BL/6J mice; [6]): 9746.4 cm
- Distance travelled in the vehicle-paired compartment (C57BL/6J mice; [6]): 4281.9 cm
- Distance travelled, drug-paired minus vehicle-paired compartment (C57BL/6J mice; [6]): 1182.6 cm
- Time spent in the drug-paired compartment (C57BL/6J mice; [6]): 1086.0 s
- Time spent in the vehicle-paired compartment (C57BL/6J mice; [6]): 714.0 s
- Time spent, drug-paired minus vehicle-paired compartment (C57BL/6J mice; [6]): 372.0 s
- Distance travelled in the drug-paired compartment (C57BL/6J mice; [7]): 7038.9 cm
- Distance travelled in the two compartments (Drug + Vehicle) (C57BL/6J mice; [7]): 12086.8 cm
- Distance travelled in the vehicle-paired compartment (C57BL/6J mice; [7]): 5047.9 cm
- Distance travelled, drug-paired minus vehicle-paired compartment (C57BL/6J mice; [7]): 1990.9 cm
- Time spent in the drug-paired compartment (C57BL/6J mice; [7]): 1089.7 s
- Time spent in the vehicle-paired compartment (C57BL/6J mice; [7]): 710.3 s
- Time spent, drug-paired minus vehicle-paired compartment (C57BL/6J mice; [7]): 379.3 s
- effect on the heroin-induced increases of distance travelled and of time spent in the drug-paired compartment (C57BL/6J mice; mazindol 0.125 mg): had no significant effect
- effect on the heroin-induced increase of time spent in the drug-paired compartment (C57BL/6J mice; mazindol 0.25 mg/kg): Tended to reduce
- effect on the heroin-induced increase of the difference of distance travelled in the drug-paired vs. vehicle-paired compartment (C57BL/6J mice; mazindol 0.25 mg/kg, effect partial): Significantly reduced
- effect on the heroin-induced increase of the difference of distance travelled in the drug-paired vs. vehicle-paired compartment (C57BL/6J mice; mazindol 0.5 mg/kg): Significantly antagonized
- effect on the heroin-induced increase of time spent in the drug-paired compartment (C57BL/6J mice; mazindol 0.5 mg/kg): Tended to reduce
- effect on the heroin-induced increase of the difference of distance travelled in the drug-paired vs. vehicle-paired compartment (C57BL/6J mice; mazindol 1 mg/kg): Did not significantly reduce
- effect on the heroin-induced increase of time spent in the drug-paired compartment (C57BL/6J mice; mazindol 1 mg/kg): Did not significantly modify
- effect on the heroin-induced increases of distance travelled and of time spent in the drug-paired compartment (C57BL/6J mice; mazindol 2 mg): had no significant effect
- effect on the place preference induced by heroin (C57BL/6J mice; mazindol 0.125, 1 and 2 mg/kg i.p. before preference session): did not induce effects suggesting a decrease of the place preference induced by heroin
- locomotor activity (total distance travelled, FIG. 3) (C57BL/6J mice; mazindol 0.125-2 mg/kg i.p. before preference session): decreased locomotor activity at all doses tested except 2 mg/kg
- effect on the place preference induced by heroin (C57BL/6J mice; mazindol 0.25, 0.5 mg/kg i.p. before preference session): decreased the place preference induced by heroin
- inhibition at 10 µM (5-HT transporter(h)): 99.5%
- affinity for κ-opioid receptors (k (KOP)): modest affinity
- efficacy in treating cocaine abuse and dependence [1]: ineffective
- carcinogenic effect [2]: no carcinogenic effect
- mutagenic effect [2]: no mutagenic effect
- toxic potential [2]: very low
- toxicology effect in reproduction [2]: no toxicology effect in reproduction
